Results published in US8828678B2, “Self-immolative probes for enzyme activity detection” (Enzo Life Sciences, Inc., priority 2010, dated 2014).

Tests used:
Jurkat cells = assay: Detection of hypoxia using flow cytometry; assay type: cell-based, human; conditions: 5 μM CD-1, 1 μM CD-6, versus vehicle-treated loaded cells
Procedure: HeLa and U-2 OS cells were cultured as described in Example 7. Human Jurkat T-cell leukemia cells (the A3 subclone) was obtained from ATCC and routinely cultured in RPMI-1640 medium (ATCC) supplemented with 10% fetal bovine serum (ATCC) and 100 U/ml penicillin+100 μg/ml streptomycin (Sigma-Aldrich). Cell cultures were maintained in an incubator at 37° C., with 5% CO2 atmosphere. CD-1, CD-4 and CD-6 self-immolative hypoxia probes were prepared as described in Example 8. All hypoxia inducers stocks were prepared as described in Example 7.
The day before the experiment, HeLa and U-2 OS cells were seeded in 6-well tissue culture plates at a density 5×10^5 cells/well. […] Post-treatment, the adherent cells (HeLa and U-2 OS) were collected by trypsinization, re-suspended in 0.5 mL of fresh PBS and analyzed using flow cytometry. Jurkat cells were analyzed without washing.
Flow cytometry experiments were performed using a FACS Calibur benchtop flow cytometer (BD Biosciences) equipped with a blue (488 nm) laser, and the fluorescence was recorded in the FITC (530/30 filter), PE (585/42 filter) and PerCP (670 LP filter) channels. Hypoxic cells were detected by detecting increases in fluorescence. The degree of hypoxia (Khyp) can be quantified by using Kolmogorov-Smirnov statistics (Young, 1977) or the following formula: Khyp=(MFIhyp−MFIcon)/MFIhyp, […]

hypoxic HeLa cells = assay: Detection of hypoxia with hypoxia markers using fluorescence microscopy; assay type: cell-based, human; conditions: 5 μM, 3.5 h, chemical induction of hypoxia (CoCl2, DFO, DMOG) or anoxic treatment, FITC filter
Procedure: The human cervical adenocarcinoma epithelial cell line HeLa, U-2 OS human bone osteosarcoma cell line and hamster ovary CHO K1 cell line were obtained from ATTC. HeLa cells were routinely cultured in Eagle's Minimum Essential Medium with low glucose (ATCC), supplemented with 10% fetal bovine serum (ATCC) and 100 U/ml penicillin, 100 μg/ml streptomycin (Sigma-Aldrich, St. Louis, Mo.). U-2 OS cells were routinely cultured in McCoy's 5a Modified Medium (ATCC), supplemented with 10% fetal bovine serum heat (ATCC) and 100 U/ml penicillin+100 μg/ml streptomycin (Sigma-Aldrich). […]
The day before the experiment, the cells were seeded on 4-well microscope slides (Cel-Line™ Brand, Portsmouth, N.H.) at a density 1×10^4 cells/well (2×10^4 cells/cm^2). […] Post-treatment, the slides were washed twice with PBS, coverslipped and visualized using an Olympus BX-51 fluorescence microscope (FITC filter set, 490ex/525em).
In parallel, the hypoxia cellular state was detected using the hypoxia detecting reagent pimonidazole (Varia et al., 1998; Young, 1977). […] Slides were stained with a 1:100 dilution of FITC-MAb1 against pimonidazole (HP-1 kit from Hypoxyprobe) for 45 min at 4° C., washed twice with PBS, coverslipped and visualized using an Olympus BX-51 fluorescence microscope equipped with an FITC filter set (490ex/525em). […]

## O=C(Nc1ccc2c(c1)Oc1cc(NC(=O)N3CCOCC3)ccc1C21OC(=O)c2ccccc21)OCc1ccc([N+](=O)[O-])cc1 (centres unmarked) [CD-1]
Jurkat cells
  fluorescence in Jurkat cells treated with chemical hypoxia inducers or subjected to anoxia: fluorescence increase
Hypoxic HeLa cells
  fluorescence signal in hypoxic HeLa cells: bright fluorescence signal
